Values of other authors, collected in patent US20110152294A1, “USE OF OSMOLYTES OBTAINED FROM EXTREMOPHILIC BACTERIA FOR THE PRODUCTION OF INHALABLE MEDICAMENTS FOR THE PROPHYLAXIS AND TREATMENT OF PULMONARY AND CARDIOVASCULAR DISEASES AND AN INHALATION DEVICE COMPRISING OSMOLYTE AS ACTIVE AGENT COMPONENT” (priority 2003, published 2011).

Test system: cornea and iris of the eyes of rabbits
Conditions: external application on cornea and iris of rabbit eyes; effects disappeared afterwards

CC1=NC[C@H](O)[C@@H](C(=O)O)N1 [hydroxyectoine]
eye irritation after external application: initial irritation and sensitization of the conjunctiva
